Reference: BigSolDB 2.1

C=NCC#N
solubility (mole fraction)
Settings | 278.15 K | 283.15 K | 288.15 K | 293.15 K | 298.15 K | 303.15 K | 308.15 K | 313.15 K | 318.15 K | 323.15 K
in ethanol | 0.00175 | 0.00213 | 0.00253 | 0.00303 | 0.00357 | 0.00424 | 0.00501 | 0.00595 | 0.00695 | 0.00814
in methanol | 0.00436 | 0.00516 | 0.00624 | 0.00747 | 0.00894 | 0.0107 | 0.0125 | 0.0145 | 0.0169 | 0.0196
in n-butanol | 0.000479 | 0.000578 | 0.000686 | 0.000819 | 0.000985 | 0.00115 | 0.00139 | 0.00162 | 0.00191 | 0.00224
in n-propanol | 0.00099 | 0.00125 | 0.00151 | 0.00183 | 0.00222 | 0.00266 | 0.00315 | 0.0037 | 0.00427 | 0.00499
in water | 0.00083 | 0.000998 | 0.00119 | 0.00143 | 0.00171 | 0.00198 | 0.00235 | 0.00274 | 0.0032 | 0.00371
